Reference: patent publication US20140121235A1, “Method for Treating S6K-Overexpressing Cancers” (Rush University Medical Center, priority 2012, published 2014)

Key:
MCF-7 cells = assay: Western blot of protein phosphorylation in MCF-7 cells; assay type: cell-based
Procedure: (§1) (A) A77 1726 induces MAP kinase activation in A375 cells cultured in 10% fetal bovine serum. A375 cells were seeded in a 6-well plate overnight and then stimulated with various concentrations of A77 1726 or PLX 4720 (1 μM) for 2 hr. Cells were harvested and analyzed for MAP kinase activation by anti-phospho-ERK1/2 antibody. The membrane was stripped and re-probed with anti-ERK1/2 antibody. (B) Lack of the feedback activation of the MAP and PI-3 kinase pathways in BT-20 cells. BT20 cells seeded in 6-well plates were starved in DMEM medium containing 05% EBS for 2 hr and treated with A77 1726 (0, 50 or 100 μM), Cells were harvested and analyzed for protein phosphorylation by specific antibodies as indicated. Protein loading was monitored by stripping membrane and re-probing with antibodies against non-phosphorylated proteins. (C) Strong feedback activation of the PI-3 kinase pathway and weak feedback activation of the MAP kinase pathway in MCF-7 cells by A77 1726 and rapamycin. […] Cells were harvested and analyzed for protein phosphorylation with the indicated antibodies. […] Cells were harvested and analyzed for protein phosphorylation by specific antibodies as indicated. Protein loading was monitored by stripping membrane and re-probing with antibodies against nonphosphorylated proteins. […]

BT-20 cells = assay: Western blot of protein phosphorylation in BT-20 cells; assay type: cell-based
Procedure: as §1

[1] = test system: carbomoyl-phosphate synthetase 2 (CAD) Ser-1859 phosphorylation; assay: CAD phosphorylation in A375 cells (phosphor-specific antibody); assay type: cell-based; details: A375 cells, 0, 50, 100 or 200 μM for 2 hours
Procedure: FIG. 12 illustrates inhibition of carbamoyl-phosphate synthetase 2 (CAD) by A 77 1726.
The ability of […] to inhibit phosphorylation of CAD at the Ser-1859 site was tested. A375 melanoma tumor cell line cultures were pretreated with the 0, 50, 100 or 200 μM A 771726 for 2 hours. Total cell lysates were prepared and analyzed for the phosphorylation of CAD by a phosphor-specific antibody.

[2] = cited from earlier work
A375 cells [3] = assay: Cell cycle analysis (propidium iodine, flow cytometer); assay type: cell-based; details: A375 cells, A77 1726 at 50 μM, 24 hr
Procedure: (A) Ability of uridine to relieve the cell cycle arrest in the S phase. A375 cells grown in 6-well plates were treated with the indicated concentration of A771726 with or without uridine (200 μM) for 24 hr. Cell cycle was analyzed in a flow cytometer as described in Materials and Methods. (B) Effect of the MAP kinase pathway inhibitors on A77 1726-mediated cell cycle arrest in the S phase. A375 cells were treated with A771726 (100 μM) in the absence or presence of 0.1% DMSO, […] (1 μM), U0126 (10 μM), PD98059 (10 for 24 hr. Single cell suspensions were prepared and analyzed for cell cycle in a flow cytometer. (C) Effect of the PI-3 kinase pathway inhibitors and their effect on A77 1726-mediated cell cycle arrest. A375 cells were treated with A77 1726 (100 μM), rapamycin (20 nM), and/or LY294002 (10 μM). After incubation for 24 hr, cells were harvested and analyzed for cell cycle progress.
Cells were grown in complete RPMI1640 medium with 10% fetal bovine serum in 6-well plates. Upon 60% confluence, the cells were treated with vehicle or with indicated concentrations of A77 1726 or various inhibitors as indicated for 24 hr. Cells were pulsed with 10 μM BrdU for 2 hr. Cells were harvested, denatured with 2N HCl for 5 min at room temperature followed by neutralization with 0.1M borate buffer (pH 8.5). After washing and blocking with normal mouse serum, the cells were stained with an Alexa Fluor 488-conjugated anti-BrdU monoclonal antibody (BD Bioscience), followed by analysis in a flow cytometer. Alexa Fluor 488-conjugated mouse IgG was included as a control. For cell cycle analysis, the cells were harvested and fixed with 2 ml cold 70% ethanol in PBS overnight at 4° C. Fixed cells were then washed 3 times with PBS, treated with RNaseA (100 μg/ml in 0.5 ml PBS). After incubation at room temperature for 30 min, cells were stained with 2.5 μl propidium iodine (10 mg/ml.) and immediately analyzed for DNA content in a flow cytometer.

A375 cells [4] = assay: Cell proliferation assay (ATP-based Cell-Glo); details: for inhibitory effect of A77 1726 blocked by uridine: exogenous uridine
Procedure: A375 cells were seeded in 96-well plates (2000 cells/well) and incubated the indicated concentrations of A77 1726 for 72 hr in the absence or presence of various concentrations PLX4720 (A, C) with or without uridine (200 μM) (B, D). Cell proliferation was analyzed by an ATP-based Cell-Glo assay. One representative of three experiments with similar results was shown. *p<0.01.
A375 cells were grown in complete RPMI 1640 medium supplemented with 10% fetal bovine serum. The cells were seeded in 96-well plates at the density of 2,000/well in the absence or presence of various concentrations of A77 1726, PLX4720, or uridine (200 μM). After incubation for 72 hr, cell proliferation was monitored by using an ATP-based Cell-Glo assay (Promegan, Madison, Wis.) following the manufacturer's instruction.

[5] = mice, single dose of 35 mg/kg of leflunomide

IC50 (A375 cells [4]; Homo sapiens, A-375, 72 hr, read-out: IC50, inhibition of A375 proliferation): ~65 µM
SMILES: C/C(O)=C(\C#N)C(=O)Nc1ccc(C(F)(F)F)cc1 [A77 1726]
effect on ERK phosphorylation (MCF-7 cells): slightly induced
effect on S6^S235/236 phosphorylation (MCF-7 cells): Inhibition
effect on ERK phosphorylation (BT-20 cells): had no effect
effect on S6^S235/236 phosphorylation (BT-20 cells): Inhibition
effect on CAD phosphorylation at Ser-1859 [1]: inhibited phosphorylation in a dose-dependent manner
serum half-life of A77 1726 ([2]; mice treated with leflunomide at a dose of 35 mg): 15 h
serum concentration of A77 1726 at 24 hr ([2]; mice, 24 hr after single dose of 35 mg/kg of leflunomide): 250 µM
peak serum concentration of A77 1726 [2, 5]: 500 µM
time to peak concentration of A77 1726 [2, 5]: ≤ 4 h
effect on cell cycle (A375 cells [3]): sufficient to arrest cell cycle in the S phase
inhibitory effect of A77 1726 blocked by uridine (A375 cells [4]; A77 1726 at 200 μM): about 20%
inhibitory effect of A77 1726 blocked by uridine (A375 cells [4]; A77 1726 at 50 or 100 μM): 80%
